Converted amounts (≈) assume the structure as drawn.
Columns and labels:
[1] = Cytotoxicity against african green monkey Vero cells assessed as cell viability measured after 48 hrs by MTT assay; type: toxicity, cell-based, Chlorocebus sabaeus
Plasmodium falciparum [2] = experiment: Antimalarial activity against Plasmodium falciparum NF54; type: functional, organism-based
Plasmodium falciparum [3] = experiment: Antimalarial activity against Plasmodium falciparum Dd2 assessed as reduction in parasite growth; type: functional, organism-based
Plasmodium falciparum [4] = experiment: Antiparasitic activity against Plasmodium falciparum 3D7 assessed as reduction in parasite growth; type: functional, organism-based
Plasmodium falciparum [5] = experiment: Antiplasmodial activity against multidrug resistant Plasmodium falciparum K1 assessed as reduction in parasite growth by [3H]-hypoxanthine incorporation assay; type: functional, organism-based
HepG2 [6] = experiment: Cytotoxicity against human HepG2 cells assessed as reduction in cell viability measured for 48 hrs by MTT assay; type: functional
[7] = Cytotoxicity against human HFF cells assessed as inhibition of cell viability measured after 48 hrs by MTT assay; type: toxicity, cell-based
Plasmodium falciparum [8] = experiment: Antimalarial activity against Plasmodium falciparum K1 assessed as reduction in parasite growth incubated for 48 hrs by SYBR Green I staining based analysis; type: functional, organism-based; details: K1, 48 h
HepG2 [9] = experiment: Cytotoxicity against human HepG2 cells assessed as reduction in cell growth; type: functional
Plasmodium falciparum [10] = experiment: Antiplasmodial activity against CQ-sensitive Plasmodium falciparum NF54; type: functional, organism-based
Plasmodium falciparum [11] = experiment: microbe, parasite or virus in culture; details: W2
Plasmodium falciparum [12] = experiment: microbe, parasite or virus in culture; details: W2; remark: listed apart in the source
Description: Antimalarial activity against Plasmodium falciparum W2 assessed as reduction in parasite growth

[13] = Cytotoxicity against African green monkey Vero cells assessed as reduction in cell growth measured after 72 hrs by MTT assay; type: toxicity, cell-based; details: African green monkey (Chlorocebus sabaeus)
Plasmodium falciparum [14] = experiment: Antiparasitic activity against Plasmodium falciparum; type: functional, organism-based
Plasmodium falciparum [15] = experiment: microbe, parasite or virus in culture; details: 3D7, 48 h

## Cc1nc(OCc2cn(CCNc3ccnc4cc(Cl)ccc34)nn2)nc(-c2ccccc2[N+](=O)[O-])c1C(=O)OC(C)C
[1]; African green monkey (Chlorocebus sabaeus)
  IC50 at 48 h: 150 µM
Plasmodium falciparum [2]
  IC50: 0.18 µM
Plasmodium falciparum [3]
  IC50: 0.99 µM

## Cc1nc(OCc2cn(CCCNc3ccnc4cc(Cl)ccc34)nn2)nc(-c2ccc([N+](=O)[O-])cc2)c1C(=O)OC(C)C
Plasmodium falciparum [2]
  IC50: 0.04 µM
Plasmodium falciparum [3]
  IC50: 4.5 µM

## Cc1ncc(C(C(=O)N(C)c2ccccc2C)N(Cc2cccc(C(F)(F)F)c2)C2CC2)cn1 (stereo unspecified)
Plasmodium falciparum [4]
  EC50: 8.1 µM
Plasmodium falciparum [5]
  EC50: 9.8 µM
HepG2 [6]
  CC50: > 30 µM

## Cc1ncc(Cn2cc(CCOC(=O)c3cccc(Cl)c3)nn2)c(N)n1
[7]
  IC50 at 48 h: > 200 µM

## Cc1ncc(Cn2cc(CCOC(=O)c3ccccc3)nn2)c(N)n1
[7]
  IC50 at 48 h: > 200 µM

## Cc1ccccc1N(C)C(=O)C(c1cncnc1)N(Cc1cccc(C(F)(F)F)c1)C1CC1 (stereo unspecified)
Plasmodium falciparum [4]
  EC50: 0.4 µM
Plasmodium falciparum [5]
  EC50: 0.79 µM
HepG2 [6]
  CC50: > 30 µM

## COC(=O)C1=C(Cn2cc(COc3cc(C(F)(F)F)nc4c(C(F)(F)F)cccc34)nn2)NC(=O)NC1c1ccc(OC)cc1 (stereo unspecified)
Plasmodium falciparum [8]
  IC50: > 5 µM

## COC(=O)C1=C(Cn2cc(CCOc3cc(C(F)(F)F)nc4c(C(F)(F)F)cccc34)nn2)NC(=O)NC1c1ccc(F)cc1 (stereo unspecified)
Plasmodium falciparum [8]
  IC50: > 5 µM

## COC(=O)C1=C(Cn2cc(COc3cc(C(F)(F)F)nc4c(C(F)(F)F)cccc34)nn2)NC(=O)NC1c1ccc(F)cc1 (stereo unspecified)
Plasmodium falciparum [8]
  IC50: > 10 µM

## CC1(C)[C@@H](O)CC[C@]2(C)[C@H]3C(=O)CC4[C@@H]5C[C@@](C)(C(=O)OCc6cn(-c7ccc(C#N)nc7)nn6)CC[C@]5(C)CC[C@@]4(C)[C@]3(C)CC[C@@H]12 (stereo partly specified)
HepG2 [9]
  CC50: 290 µM
Plasmodium falciparum [10]
  IC50: 5.5 µM

## CCN(CC)Cc1cc(Nc2ccnc3cc(Cl)ccc23)ccc1O [AMODIAQUINE]
Plasmodium falciparum [11]
  IC50: 0.07 µM
Plasmodium falciparum [12]
  IC50: 0.06 µM

## CCN(CC)CCCC(C)Nc1ccnc2cc(Cl)ccc12 (stereo unspecified) [CHLOROQUINE]
HepG2 [9]
  CC50: 45.4 µM
[1]; chlorocebus sabaeus, time 48 hrs
  CC50 at 48 h: 393 µM
[13]
  IC50 at 72 h: 907 µM

## C=C[C@H]1CN2CC[C@H]1C[C@H]2[C@H](O)c1ccnc2ccc(OC)cc12 [QUININE]
Plasmodium falciparum [14]
  IC50: 2.71 µM
Plasmodium falciparum [11]
  IC50: 0.83 µM
Plasmodium falciparum [15]
  IC50: 0.26 µg/mL (≈ 0.801 µM)
